BigSolDB 2.1

CC(=O)[C@@]1(O)CC[C@H]2[C@@H]3CCC4=CC(=O)CC[C@]4(C)[C@H]3C(O)C[C@@]21C (stereo in doubt)
solubility (mole fraction)
Settings | 278.15 K | 283.15 K | 288.15 K | 293.15 K | 298.15 K | 303.15 K | 308.15 K | 313.15 K
in DMF | 0.0659 | 0.0722 | 0.0753 | 0.0825 | 0.0943 | 0.1 | 0.11 | 0.119
in acetone | 0.00679 | 0.00761 | 0.00804 | 0.00859 | 0.0095 | 0.0106 | 0.0115 | 0.0123
in chloroform | 0.0129 | 0.0134 | 0.0141 | 0.0146 | 0.0157 | 0.016 | 0.0172 | 0.0189
in methanol | 0.0139 | 0.0147 | 0.0159 | 0.0172 | 0.0181 | 0.0206 | 0.0232 | 0.0249
in n-propanol | 0.00838 | 0.00978 | 0.0112 | 0.0129 | 0.0134 | 0.0143 | 0.0157 | 0.0169
in water | 1.39e-05 | 1.73e-05 | 2.08e-05 | 2.43e-05 | 2.77e-05 | 3.47e-05 | 3.64e-05 | 3.98e-05
